Common to all, as to type: cell-based, human
Assay [1] has as its system Adipose-derived stem cells. Kind of assay: Culture in the presence of 5-azacytidine. To be noted: exposure to 5-azacytidine. The protocol:
Adipose-derived stem cells obtained in accordance with Example 1 were cultured in the presence of 5-azacytidine.

Another assay relates to matrix mineralization. In words: Total calcium, spectrophotometric. The protocol:
Cells were washed with PBS (no Ca^2+, no Mg^2+) and harvested in 0.1N HCl. Cells were extracted for a minimum of 4 hours at 4° C. and centrifuged at 1000×g for 5 minutes. Total calcium in the supernatant was determined using Sigma kit #587 and measured at A575 nm. The assay was calibrated using calcium standard solutions. Total protein was determined and the samples were expressed as mM Ca/ug protein. […] Values are expressed as the mean±SD.
Bone formation in vivo is a complex process involving morphogens, hormones and growth factors. Recent work has questioned the efficacy of synthetic glucocorticoids, like dexamethasone (Dex), in mediating osteogenesis. Glucocorticoids appear to inhibit the action of several osteogenic genes including osteocalcin, CBFA-1 and CNI (as reviewed in Cooper, et al., 1999 J. Endocrinol. 163:159-164). It is well established that bone tissue and osteoprogenitor cells are targets of vitamin D action (Chen, et al., 1983 J. Biol. Chem. 258:4350; Chen, et al., 1979 J. Biol. Chem. 254:7491; Narbaitz, et al., 1983 Calcif. Tiss. Int. 35:177) and this metabolite stimulates both AP activity and CNI synthesis by human bone cell populations (Beresford, et al., 1986 Endo 119:1776-1785). […] AP activity and Ca^2+ accumulation were measured over time using commercial kits and normalized with respect to protein and/or time.

The subject of the next assay is Alkaline phosphatase. Kind of assay: Alkaline phosphatase enzyme activity, spectrophotometric. To be noted: 2 to 3 weeks.
A further assay has as its system PLA cells. In words: Micromass culture chondrogenic nodule formation. To be noted: induction medium containing TGFβ1 alone. The protocol: Chondrogenic differentiation was induced using a micromass culture protocol as previously described with some modifications (Ahrens, P B, et al., 1977 Dev. Biol. 60:69-82; Denker, A E 1995 Differentiation 59:25-34). Ten microliter drops of the PLA cellular suspension were placed in the center of each well of a 24-well tissue culture plate and on chamber slides. The cells were placed in an incubator at 37° C. at 5% CO2 for two hours to allow cell adherence. The pellets were gently overlaid with control medium and incubated overnight. The medium was replaced by chondrogenic medium [DMEM with 1% FBS supplemented with 10 ng/ml TGF-β1 (R&D Systems, Minneapolis, Minn.), 6.25 μg/ml insulin (Sigma), and 6.25 μg/ml transferrin (Sigma)]. The pellets were induced for six days in chondrogenic medium. At day six and thereafter, 50 μg/ml ascorbic acid-2-phosphate (Sigma) was added to the chondrogenic medium mixture. PLA pellets were harvested at days two, seven, and fourteen after initial induction for analysis. […] HFF cells were cultured as above under micromass and monolayer conditions as a negative control.
In order to assess the relationship of chondrogenic induction to PLA cell, micromass cultures were plated in chondrogenic medium at cell concentrations of 1×10^5, 1×10^6, 2.5×10^6, 5×10^6, 1×10^7, 2×10^7, and 5×10^7 cells per milliliter (cells/ml). […]

Experimental for Alkaline phosphatase: Cells were washed with PBS and harvested into PBS/0.1% Triton X-100 (PBS/TX100). AP enzyme activity was assayed using a commercial AP enzyme kit (Sigma) and measured at an absorbance of 405 nm. Total protein in each sample was measured based on the Bradford method (Bradford 1976 Anal. Biochem. 72:248-254) using a BCA Protein Assay Kit (Pierce, Rockford, Ill.). AP activity was expressed a nmol p-nitrophenol produced/minute/ug protein. The assay was calibrated using standard p-nitrophenol solutions. Differentiated MSC and NHOst cells were assayed as positive controls while non-induced PLA cells were assayed as a negative control. Values are expressed as the mean±SD.

Take `Nc1ncn([C@@H]2O[C@H](CO)[C@@H](O)[C@H]2O)c(=O)n1` [5-azacytidine]: the “myogenic differentiation of adipose-derived stem cells” value in assay [1] is “did not induce myogenic differentiation”. As to `C[C@@H]1C[C@H]2[C@@H]3CCC4=CC(=O)C=C[C@]4(C)[C@@]3(F)[C@@H](O)C[C@]2(C)[C@@]1(O)C(=O)CO` [Dex, dexamethasone], in the assay with matrix mineralization, the “overall increase in matrix mineralization in PLA cells” value worked out at 56 fold. The “AP enzyme induction in MSCs” value with Alkaline phosphatase (MSCs) is recorded as 54.2 fold. Moreover, the “AP enzyme induction in PLA cells” value in the assay with Alkaline phosphatase (PLA cells) came out at 17.2 fold. Regarding `C=C1/C(=C\C=C2/CCC[C@]3(C)[C@@H]([C@H](C)CCCC(C)(C)O)CC[C@@H]23)C[C@@H](O)C[C@@H]1O` [VD, 1,25-dihydroxyvitamin D3], in the assay on matrix mineralization, the “overall increase in matrix mineralization in PLA cells” value was found to be 122 fold. For the molecule “TGFβ1: transforming growth factor-beta 1”, the “nodule formation by PLA cells” value in the assay with PLA cells is “PLA nodules formed”.
